For assay [1], the system named is RAW264.7. The experiment in a line: Antiinflammatory activity in mouse RAW264.7 cells assessed as inhibition of LPS-induced PGE2 production incubated for 1 hr prior to LPS challenge measured after 24 hrs by EIA. It is filed as functional, cell-based.
Assay [2] deals with RAW264.7. Put plainly: Antiinflammatory activity in mouse RAW264.7 cells assessed as inhibition of LPS-induced nitrite production after 24 hrs by Griess assay. It is filed as functional, cell-based. As to conditions: RAW264.7, 24 h. (In general: Griess reagent forms a coloured azo dye with nitrite.)
Assay [3] deals with RAW264.7. Put plainly: Cytotoxicity against mouse RAW264.7 cells assessed as cell viability after 24 hrs by MTT assay. As to conditions: RAW264.7, 24 h. It is filed as cell-based.

This passage reports IC50 results from ChEMBL document CHEMBL2375350, “Synthesis of indolyl-3-acetonitrile derivatives and their inhibitory effects on nitric oxide and PGE2 productions in LPS-induced RAW 264.7 cells” (Bioorg Med Chem Lett, 2013).

A word on the IC50: it is the concentration that inhibits the measured activity by half. As for `COc1ccc2c(CC#N)c[nH]c2c1`, the values for the IC50 with RAW264.7 [1], in the assay on RAW264.7 [2] and in the assay with RAW264.7 [3] were 83.6 µM, more than 100 µM and 161 µM, respectively.

Consider `CC(=O)n1cc(CC#N)c2ccc(O)cc21`, for which the IC50 is 41.3 µM with RAW264.7 [1], 82.1 µM in the assay on RAW264.7 [2] and more than 400 µM in the assay with RAW264.7 [3].

On to `COC(=O)Cn1cc(CC#N)c2ccc(O)cc21`, for which the figures for the IC50 in the assay with RAW264.7 [1], in the assay with RAW264.7 [2] and with RAW264.7 [3] were more than 100 µM, more than 100 µM and more than 400 µM, respectively.

As to `N#CCc1c[nH]c2c(OCc3ccccc3)cccc12`, the IC50 was 73.1 µM with RAW264.7 [1], 48.7 µM in the assay on RAW264.7 [2] and more than 400 µM in the assay on RAW264.7 [3].

With `Cn1cc(CC#N)c2cc(O)ccc21`, the results for the IC50 in the assay on RAW264.7 [1], in the assay with RAW264.7 [2] and in the assay on RAW264.7 [3] were 57.7 µM, more than 100 µM and 325 µM, respectively.

`N#CCc1c[nH]c2cc(OCc3ccccc3)ccc12`: the IC50 in the assay on RAW264.7 [1] is more than 25 µM; in the assay on RAW264.7 [2] it was 20.4 µM; in the assay with RAW264.7 [3], 53.2 µM.

Take `COc1cccc2[nH]cc(CC#N)c12` [ARVELEXIN]: the IC50 turned out to be 13.9 µM with RAW264.7 [1], 83.6 µM in the assay on RAW264.7 [2] and 207 µM in the assay with RAW264.7 [3].

In the case of `COc1cccc2c(CC#N)c[nH]c12`, the values for the IC50 with RAW264.7 [1], in the assay with RAW264.7 [2] and in the assay with RAW264.7 [3] were more than 100 µM, more than 100 µM and more than 400 µM, respectively.

With `N#CCc1c[nH]c2ccc(OCc3ccccc3)cc12`, the IC50 in the assay on RAW264.7 [1] was more than 25 µM; in the assay with RAW264.7 [2], 19.4 µM; in the assay with RAW264.7 [3], 82.7 µM.

With `Cn1cc(CC#N)c2c(O)cccc21`, the IC50 in the assay with RAW264.7 [1] was 16 µM; with RAW264.7 [2], 57.1 µM; in the assay on RAW264.7 [3], more than 400 µM.

Regarding `COc1ccc2[nH]cc(CC#N)c2c1`, the IC50 in the assay with RAW264.7 [1] is more than 100 µM; in the assay on RAW264.7 [2] it was more than 100 µM; with RAW264.7 [3], 99.6 µM.

For the compound `N#CCc1c[nH]c2cccc(OCc3ccccc3)c12`, the figures for the half-inhibitory concentration (IC50) in the assay with RAW264.7 [1], in the assay on RAW264.7 [2] and in the assay with RAW264.7 [3] were 32.4 µM, 45.6 µM and 105 µM, respectively.

For the compound `Cn1cc(CC#N)c2ccc(O)cc21`, the IC50 stood at 11.7 µM in the assay with RAW264.7 [1], 80.1 µM in the assay with RAW264.7 [2] and 372 µM in the assay on RAW264.7 [3].

For `Cn1cc(CC#N)c2cccc(O)c21`, the IC50 in the assay with RAW264.7 [1] is 6.22 µM; in the assay on RAW264.7 [2], 39.8 µM; with RAW264.7 [3], more than 400 µM.

With `COC(=O)n1cc(CC#N)c2ccc(O)cc21`, the IC50 with RAW264.7 [1] was 15.2 µM; in the assay with RAW264.7 [2] it was more than 100 µM; in the assay with RAW264.7 [3], 339 µM.
